Consider three molecules from patent US20200129592A1, “COMPOSITION FOR TREATING STROKE AND METHOD FOR SCREENING THE SAME” (CHA University Industry-Academic Cooperation Foundation, priority 2018, published 2020).

What all share (assay type): cell-based, mouse
The subject of series [1] is Raw 264.7 cells. Kind of series: Inhibition of p-CREB with KG501, IL-1ra ELISA in Raw 264.7 cells. To be noted: KG501 2, 5, 10 μM pretreatment 45 min, then hUMSCs-CM with LPS 200 ng/ml. As for the experimental part: Raw 264.7 cells (2×10^5) were seeded onto the plate, and incubated for 24 hrs. The cells were pretreated with a serum-free medium containing KG501 (2 μM, 5 μM, and 10 μM, Sigma-Aldrich, MO) for 45 min. The supernatant was then removed from the dish, and the cells were treated with hUMSCs-CM in the presence of LPS (200 ng/ml). The supernatant was used for IL-1ra ELISA analysis. Independent experiments were triplicated on different days.
(§1) IL-1β and IL-1ra levels were measured in supernatants of Raw 264.7 cells using commercially available ELISA kits (IL-1β Quantikine ELISA and IL-1 ra Quantikine ELISA kits, R&D Systems, MN).

Series [2] deals with Raw 264.7 cells. Kind of series: IL-1β and IL-1ra ELISA in supernatants of Raw 264.7 cells. To be noted: LPS alone. As for the experimental part:
A mouse macrophage cell line (Raw 264.7 cell, ATCC, VA) was cultured according to the manufacturer's instructions. The raw 264.7 cells were treated with either LPS (100 ng/ml, Sigma-Aldrich, MO) or LPS together with hUMSCs-CM for 24 hrs, and the supernatants were isolated from each treated group.
as §1
For orientation: ELISA stands for enzyme-linked immunosorbent assay.

The subject of series [3] is Raw 264.7 cells. Kind of series: Knockdown of CREB by siRNA in Raw 264.7 cells. As for the experimental part: After Raw 264.7 cells (2×10^5) were plated in 6-well plates, transfection with 100 nM of CREB siRNA (siCREB) and control (siCtr) was performed for 48 hrs using Lipofectamine 3000 reagent (Invitrogen, MA) according to the manufacturer's instructions. The siCREB (sense: 5′-[…]-3″, antisense: 5′-[…]-3″) and siCtr (sense: 5-ACGUGACACGUUCGGAGAA-3′, antisense: 5′-UUCUCCGAACGUGUCACGU-3″) were purchased from Genolution Pharmaceuticals, Inc. After transfection, the RNA and proteins were isolated and used for PCR and western blotting, respectively.

As to `O=C(Nc1ccc(Cl)cc1)c1cc2ccccc2cc1OP(=O)(O)O` [KG501], in the series with Raw 264.7 cells [1], the “increase of IL-1ra expression by hUMSCs-CM treatment” value is recorded as “inhibited in a CREB inhibitor dose-dependent manner”.

For the molecule lipopolysaccharide [LPS], in the series on Raw 264.7 cells [2], the “IL-1ra level in Raw 264.7 cells” value is given as “strongly elevated” and the “IL-1β level in Raw 264.7 cells” value was “strongly elevated”.

With “siCREB: CREB siRNA, sense 5′-CCACAAAUCAGAUUAAUUUUU-3″, antisense 5′-AAAUUAAUCUGAUUUGUGGUU-3″ (chemistry not given here)”, the “enhanced expression of IL1RN induced by hUMSCs-CM” value in the series with Raw 264.7 cells [3] (LPS-stimulated Raw 264.7 cells, knockdown of CREB) was “reduced”. Moreover, the “expression of IL-1ra protein in Raw 264.7 cells” value in the series with Raw 264.7 cells [3] (transfection with 100 nM siCREB, 48 hrs) is recorded as “reduced”.
